Results: BindingDB's records for doi:10.1016/j.bmcl.2005.03.008 (Abbott Laboratories, 2005)
pIC50: −log10 of the molar value.

Molecular target: T1, Dimer of Gag-Pol polyprotein [489-587] (Human immunodeficiency virus 1, UniProt P12497)
T1 construct: 489-587
Assay: Enzyme Inhibition Assay
Details: pH 4.5; 30 °C
Experimental: HIV-1 protease inhibition was measured by a fluorescence assay using recombinant HIV-1 protease. […] The percent inhibition of enzyme activity in the presence of inhibitor was determined by comparing inhibition rates with uninhibited control reactions. All IC50 values were determined with a range of inhibitor concentrations using the relation IC50 = (100/ percent inhibition - 1) x inhibitor concentration.

**Q.** Cc1nc(CN2CCN([C@H](C(=O)N[C@@H](Cc3ccccc3)[C@H](O)CN(CC(C)C)S(=O)(=O)c3cccc(CN=O)c3)C(C)C)C2=O)cs1 [(2S)-N-[(2S,3R)-3-hydroxy-4-({3-[(1E)-(hydroxyimino)methyl]benzene}(2-methylpropyl)sulfonamido)-1-phenylbutan-2-yl]-3-methyl-2-{3-[(2-methyl-1,3-thiazol-4-yl)methyl]-2-oxoimidazolidin-1-yl}butanamide] was tested. Which pIC50 did it give?
**A.** 7.80

**Q.** With Cc1nc(CN2CCN([C@H](C(=O)N[C@@H](Cc3ccccc3)[C@H](O)CN(CC(C)C)S(=O)(=O)c3ccc(CN=O)cc3)C(C)C)C2=O)cs1 [(2S)-N-[(2S,3R)-3-hydroxy-4-({4-[(1E)-(hydroxyimino)methyl]benzene}(2-methylpropyl)sulfonamido)-1-phenylbutan-2-yl]-3-methyl-2-{3-[(2-methyl-1,3-thiazol-4-yl)methyl]-2-oxoimidazolidin-1-yl}butanamide] as the molecule, how does the pIC50 read?
**A.** 8.30

**Q.** CO/N=C/c1ccc(S(=O)(=O)N(CC(C)C)C[C@@H](O)[C@H](Cc2ccccc2)NC(=O)[C@H](C(C)C)N2CCN(Cc3csc(C)n3)C2=O)cc1 [(2S)-N-[(2S,3R)-3-hydroxy-4-({4-[(1E)-(methoxyimino)methyl]benzene}(2-methylpropyl)sulfonamido)-1-phenylbutan-2-yl]-3-methyl-2-{3-[(2-methyl-1,3-thiazol-4-yl)methyl]-2-oxoimidazolidin-1-yl}butanamide] was tested. Which pIC50 did it give?
**A.** 6.19

**Q.** Cc1nc(CN2CCN([C@H](C(=O)N[C@@H](Cc3ccccc3)[C@H](O)CN(CC(C)C)S(=O)(=O)c3ccc(CO)cc3)C(C)C)C2=O)cs1 [(2S)-N-[(2S,3R)-3-hydroxy-4-{[4-(hydroxymethyl)benzene](2-methylpropyl)sulfonamido}-1-phenylbutan-2-yl]-3-methyl-2-{3-[(2-methyl-1,3-thiazol-4-yl)methyl]-2-oxoimidazolidin-1-yl}butanamide] was tested. Which pIC50 did it give?
**A.** 7.80
